Laboratory results: patent US4921850A, “3-propenylcephem derivative” (Eisai Co., Ltd., priority 1986, dated 1990)
In brackets after ≈: the same amount, converted by molar mass. Where two headings read alike, the source gives them in different places.

Tests used:
Test in all cases: Anti-bacterial activity (MIC), agar dilution
Assay type in all cases: cell-based
Escher. coli NIHJ = details: Escher. coli NIHJ, agar dilution, about 10^6 CFU/ml, 18 hours, 37° C.
Experimental: (§1) MIC (μg/ml) were determined by an agar dilution method [Chemotherapy (Japan), 29, 76-79, 1981]. Overnight cultures of the bacterial strains in Mueller-Hinton broth were diluted to final concentration of about 10^6 CFU/ml, and 5 μl of each bacterial suspension was spotted onto Mueller-Hinton agar plates that contained twofold serial dilutions of antibiotics. MICs were measured after incubation for 18 hours at 37° C.

[1] = test system: Morganella morganii EP-14; details: about 10^6 CFU/ml, 37° C.
Experimental: as §1

Ser. marcescens ES-75 = test system: Ser. marcescens ES-75
Experimental: as §1

Staph. aureus 209-P = details: Staph. aureus 209-P, agar dilution, about 10^6 CFU/ml, 18 hours, 37° C.
Experimental: as §1

Kleb. pneumoniae EK-6 = details: Kleb. pneumoniae EK-6, agar dilution, about 10^6 CFU/ml, 18 hours, 37° C.
Experimental: as §1

Pseud. aeruginosa EP-01 = details: Pseud. aeruginosa EP-01, agar dilution, about 10^6 CFU/ml, 18 hours, 37° C.
Experimental: as §1

[2] = Escherichia coli, 18 h, read-out: MIC
[3] = Morganella morganii, EP14, 18 h, read-out: MIC
[4] = Serratia marcescens, ES75, 18 h, Ser. marcescens ES-75, agar dilution, about 10^6 CFU/ml, 18 hours, 37° C., read-out: MIC
[5] = Staphylococcus aureus, 209P, 18 h, read-out: MIC
[6] = Klebsiella pneumoniae, EK6, 18 h, read-out: MIC
[7] = Pseudomonas aeruginosa, EP01, 18 h, read-out: MIC
[8] = Ser. marcescens ES-75, agar dilution, about 10^6 CFU/ml, 18 hours, 37° C.

| MIC (Escher. coli NIHJ; [2]) [µg/mL] | MIC [1, 3] [µg/mL] | MIC (Ser. marcescens ES-75; [4]) [µg/mL] | MIC (Staph. aureus 209-P; [5]) [µg/mL] | MIC (Kleb. pneumoniae EK-6; [6]) [µg/mL] | MIC (Pseud. aeruginosa EP-01; [7]) [µg/mL] | Compound | MIC (Escher. coli NIHJ) [µg/mL] | MIC ([1]; 18 hours) [µg/mL] | MIC (Ser. marcescens ES-75; [8]) [µg/mL] | MIC (Staph. aureus 209-P) [µg/mL] | MIC (Kleb. pneumoniae EK-6) [µg/mL] | MIC (Pseud. aeruginosa EP-01) [µg/mL] | MIC (Ser. marcescens ES-75; Serratia marcescens, ES75, 18 h) [µg/mL] |
| --- | --- | --- | --- | --- | --- | --- | --- | --- | --- | --- | --- | --- | --- |
| 0.05 (≈ 0.0875 µM) | ≤ 0.025 | ≤ 0.025 | 0.4 (≈ 0.7 µM) | ≤ 0.025 | 1.56 (≈ 2.73 µM) | Nc1nc(/C(=N/OCF)C(=O)N[C@@H]2C(=O)N3C(C(=O)[O-])=C(/C=C/C[N+]4(CCO)CCC(O)C4)CS[C@H]23)ns1 (stereo partly drawn) [Example 15-1] |  |  |  |  |  |  |  |
| 0.05 (≈ 0.0824 µM) | 0.05 (≈ 0.0824 µM) | 0.1 (≈ 0.165 µM) | 0.4 (≈ 0.659 µM) | ≤ 0.025 | 1.56 (≈ 2.57 µM) | Nc1nc(/C(=N/OCF)C(=O)N[C@@H]2C(=O)N3C(C(=O)[O-])=C(/C=C/C[n+]4ccc(C(=O)NCCO)cc4)CS[C@H]23)ns1 [Example 84] |  |  |  |  |  |  |  |
| 0.05 (≈ 0.092 µM) | 0.05 (≈ 0.092 µM) | 0.1 (≈ 0.184 µM) | 0.8 (≈ 1.47 µM) | 0.05 (≈ 0.092 µM) | 0.8 (≈ 1.47 µM) | C[N+](C)(C/C=C/C1=C(C(=O)[O-])N2C(=O)[C@@H](NC(=O)/C(=N\OCF)c3nsc(N)n3)[C@H]2SC1)NC(N)=O [Example 53] |  |  |  |  |  |  |  |
| ≤ 0.025 | ≤ 0.025 | 0.1 (≈ 0.184 µM) | 0.2 (≈ 0.369 µM) | ≤ 0.025 | 0.4 (≈ 0.737 µM) | C[N+](C)(C/C=C/C1=C(C(=O)[O-])N2C(=O)[C@@H](NC(=O)/C(=N\OCF)c3nsc(N)n3)[C@H]2SC1)CC(N)=O [Example 118, 7β-[2-(5-Amino-1,2,4-thiadiazol-3-yl)-(Z)-2-fluoromethoxyiminoacetamido]-3-[(E)-3-(carbamoylmethyldimethylammonio)-1-propen-1-yl]-3-cephem-4-carboxylate] |  |  |  |  |  |  |  |
| 0.05 (≈ 0.0768 µM) | ≤ 0.025 | 0.1 (≈ 0.154 µM) | 0.8 (≈ 1.23 µM) | ≤ 0.025 | 3.13 (≈ 4.81 µM) | Nc1nc(/C(=N/OCF)C(=O)N[C@@H]2C(=O)N3C(C(=O)[O-])=C(/C=C/C[n+]4ccc(C(=O)N(CCO)CCO)cc4)CS[C@H]23)ns1 [Example 83] |  |  |  |  |  |  |  |
| 0.2 (≈ 0.35 µM) | 0.4 (≈ 0.701 µM) | 0.2 (≈ 0.35 µM) | 0.4 (≈ 0.701 µM) | 0.2 (≈ 0.35 µM) | 3.13 (≈ 5.48 µM) | CN(C)CCC[N+](C)(C)C/C=C/C1=C(C(=O)[O-])N2C(=O)[C@@H](NC(=O)/C(=N\OCF)c3nsc(N)n3)[C@H]2SC1 [Example 77] |  |  |  |  |  |  |  |
| ≤ 0.025 | ≤ 0.025 | ≤ 0.025 | 0.2 (≈ 0.343 µM) | ≤ 0.025 | 1.56 (≈ 2.67 µM) | Cc1c(CCO)sc[n+]1C/C=C/C1=C(C(=O)[O-])N2C(=O)[C@@H](NC(=O)/C(=N\OCF)c3nsc(N)n3)[C@H]2SC1 [Example 81] |  |  |  |  |  |  |  |
| 0.1 (≈ 0.166 µM) | 0.1 (≈ 0.166 µM) | 0.2 (≈ 0.332 µM) | 0.4 (≈ 0.665 µM) | 0.05 (≈ 0.0831 µM) | 1.56 (≈ 2.59 µM) | Nc1nc(/C(=N/OCF)C(=O)N[C@@H]2C(=O)N3C(C(=O)[O-])=C(/C=C/C[N+]4(CC(O)CO)CCOCC4)CS[C@H]23)ns1 (stereo partly drawn) [Example 38] |  |  |  |  |  |  |  |

More lines, now with the values behind:

| Compound | MIC (Escher. coli NIHJ; [2]) [µg/mL] | MIC [1, 3] [µg/mL] | MIC (Ser. marcescens ES-75; [4]) [µg/mL] | MIC (Staph. aureus 209-P; [5]) [µg/mL] | MIC (Kleb. pneumoniae EK-6; [6]) [µg/mL] | MIC (Pseud. aeruginosa EP-01; [7]) [µg/mL] | MIC (Escher. coli NIHJ) [µg/mL] | MIC ([1]; 18 hours) [µg/mL] | MIC (Ser. marcescens ES-75; [8]) [µg/mL] | MIC (Staph. aureus 209-P) [µg/mL] | MIC (Kleb. pneumoniae EK-6) [µg/mL] | MIC (Pseud. aeruginosa EP-01) [µg/mL] | MIC (Ser. marcescens ES-75; Serratia marcescens, ES75, 18 h) [µg/mL] |
| --- | --- | --- | --- | --- | --- | --- | --- | --- | --- | --- | --- | --- | --- |
| C[N+](C)(C/C=C/C1=C(C(=O)[O-])N2C(=O)[C@@H](NC(=O)/C(=N\OCF)c3nsc(N)n3)[C@H]2SC1)C(CO)(CO)CO [Example 70] | ≤ 0.025 | ≤ 0.025 | 0.1 (≈ 0.17 µM) | 0.1 (≈ 0.17 µM) | ≤ 0.025 | 0.8 (≈ 1.36 µM) |  |  |  |  |  |  |  |
| Nc1nc(/C(=N/OCF)C(=O)N[C@@H]2C(=O)N3C(C(=O)[O-])=C(/C=C/C[N+]4(CCO)CCC(O)C4)CS[C@H]23)ns1 (stereo partly drawn) [Example 15-2] |  |  |  |  |  |  | ≤ 0.025 | ≤ 0.025 | ≤ 0.025 | 0.4 (≈ 0.7 µM) | ≤ 0.025 | 1.56 (≈ 2.73 µM) |  |
| NC(=O)C[N+]1(C/C=C/C2=C(C(=O)[O-])N3C(=O)[C@@H](NC(=O)/C(=N\OCF)c4nsc(N)n4)[C@H]3SC2)CCC(O)C1 (stereo partly drawn) [Example 9-3, 7β-[2-(5-Amino-1,2,4-thiadiazol-3-yl)-(Z)-2-fluoromethoxyiminoacetamido]-3-[(E)-3-(1-carbamoylmethyl-3-hydroxy-1-pyrrolidinio)-1-propen-1-yl]-3-cephem-4-carboxylate] |  |  |  |  |  |  | ≤ 0.025 | ≤ 0.025 | ≤ 0.025 | 0.4 (≈ 0.684 µM) | ≤ 0.025 | 0.8 (≈ 1.37 µM) |  |
| NC(=O)NCC[N+]1(C/C=C/C2=C(C(=O)[O-])N3C(=O)[C@@H](NC(=O)/C(=N\OCF)c4nsc(N)n4)[C@H]3SC2)CCOCC1 [Example 36] | 0.05 (≈ 0.0815 µM) | 0.05 (≈ 0.0815 µM) | 0.1 (≈ 0.163 µM) | 0.2 (≈ 0.326 µM) | ≤ 0.025 | 1.56 (≈ 2.54 µM) |  |  |  |  |  |  |  |
| C[N+](C)(C/C=C/C1=C(C(=O)[O-])N2C(=O)[C@@H](NC(=O)/C(=N\OCC#N)c3nsc(N)n3)[C@H]2SC1)Cc1nnco1 [Example 159] | 0.05 (≈ 0.087 µM) | 0.1 (≈ 0.174 µM) | 0.1 (≈ 0.174 µM) | 0.4 (≈ 0.696 µM) | 0.05 (≈ 0.087 µM) | 1.56 (≈ 2.71 µM) |  |  |  |  |  |  |  |
| CN(C)CC(O)C[N+](C)(C)C/C=C/C1=C(C(=O)[O-])N2C(=O)[C@@H](NC(=O)/C(=N\OCF)c3nsc(N)n3)[C@H]2SC1 (stereo partly drawn) [Example 78] | 0.2 (≈ 0.341 µM) | 0.2 (≈ 0.341 µM) | 0.2 (≈ 0.341 µM) | 0.4 (≈ 0.682 µM) | 0.2 (≈ 0.341 µM) | 3.13 (≈ 5.34 µM) |  |  |  |  |  |  |  |
| CC(O)C[N+](C)(C)C/C=C/C1=C(C(=O)[O-])N2C(=O)[C@@H](NC(=O)/C(=N\OCC#N)c3nsc(N)n3)[C@H]2SC1 (stereo partly drawn) [Example 149] | 0.1 (≈ 0.182 µM) | 0.05 (≈ 0.0908 µM) | 0.05 (≈ 0.0908 µM) | 0.2 (≈ 0.363 µM) | 0.05 (≈ 0.0908 µM) | 1.56 (≈ 2.83 µM) |  |  |  |  |  |  |  |
| C[N+](C)(C/C=C/C1=C(C(=O)[O-])N2C(=O)[C@@H](NC(=O)/C(=N\OCF)c3nsc(N)n3)[C@H]2SC1)CCC(N)=O [Example 93] | ≤ 0.025 | ≤ 0.025 | ≤ 0.025 | 0.2 (≈ 0.359 µM) | ≤ 0.025 | 0.8 (≈ 1.44 µM) |  |  |  |  |  |  |  |
| Nc1nc(/C(=N/OCF)C(=O)N[C@@H]2C(=O)N3C(C(=O)[O-])=C(/C=C/C[N+]4(CCO)CCOCC4)CS[C@H]23)ns1 [Example 37] | 0.05 (≈ 0.0875 µM) | 0.05 (≈ 0.0875 µM) | 0.1 (≈ 0.175 µM) | 0.2 (≈ 0.35 µM) | ≤ 0.025 | 1.56 (≈ 2.73 µM) |  |  |  |  |  |  |  |
| Nc1nc(/C(=N/OCF)C(=O)N[C@@H]2C(=O)N3C(C(=O)[O-])=C(/C=C/C[N+]4(CCO)C[C@H](O)C[C@H]4CO)CS[C@H]23)ns1 (single isomer, unassigned) [Example 7-1, 7β-[2-(5-Amino-1,2,4-thiadiazol-3-yl)-(Z)-2-fluoromethoxyiminoacetamido]-3-[(E)-3-[4R-hydroxy-1-(2-hydroxyethyl)-2S-hydroxymethyl-1-pyrrolidinio]-1-propen-1-yl]-3-cephem-4-carboxylate] | ≤ 0.025 | ≤ 0.025 | ≤ 0.025 | 0.2 (≈ 0.332 µM) | ≤ 0.025 | 0.8 (≈ 1.33 µM) |  |  |  |  |  |  |  |
| CC(C(N)=O)[N+]1(C/C=C/C2=C(C(=O)[O-])N3C(=O)[C@@H](NC(=O)/C(=N\OCF)c4nsc(N)n4)[C@H]3SC2)CCCC1 (single isomer, unassigned) [Example 13-2] |  |  |  |  |  |  | ≤ 0.025 | 0.05 (≈ 0.0858 µM) | 0.05 (≈ 0.0858 µM) | 0.2 (≈ 0.343 µM) | ≤ 0.025 | 1.56 (≈ 2.68 µM) |  |
| NC(=O)C[N+]1(C/C=C/C2=C(C(=O)[O-])N3C(=O)[C@@H](NC(=O)/C(=N\OCF)c4nsc(N)n4)[C@H]3SC2)CCCC1 [Example 19] | ≤ 0.025 | ≤ 0.025 |  | 0.2 (≈ 0.352 µM) | ≤ 0.025 | 0.8 (≈ 1.41 µM) |  |  |  |  |  |  | 0.5 (≈ 0.879 µM) |
| C[N+](C)(C/C=C/C1=C(C(=O)[O-])N2C(=O)[C@@H](NC(=O)/C(=N\OCF)c3nsc(N)n3)[C@H]2SC1)CC(=O)N(CCO)CCO [Example 74] | 0.1 (≈ 0.159 µM) | 0.1 (≈ 0.159 µM) | 0.4 (≈ 0.634 µM) | 0.8 (≈ 1.27 µM) | 0.05 (≈ 0.0793 µM) | 1.56 (≈ 2.47 µM) |  |  |  |  |  |  |  |
